Test system: male and female Sprague–Dawley rats
Assay: 90-day subchronic oral gavage toxicity study
Assay type: in vivo, rat
Method in brief: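 Rats dosed daily by oral gavage in corn oil (3 mL/kg) for 90 days, five dose levels plus control, n = 10/sex/group, euthanized SD 91. Endpoints: clinical observation, bodyweight, feed intake, FOB/locomotor activity, ophthalmology, terminal hematology, serum chemistry, coagulation, plasma parent PFAS, organ weights, histopathology. Groups vs control by ANOVA/Dunnett's (p<0.05).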

## C=CC(=O)OCC(F)(F)C(F)(F)C(F)(F)C(F)(F)C(F)(F)C(F)(F)C(F)(F)C(F)F [PFNAC, 1H,1H,9H-Perfluorononyl acrylate]
female, 30 mg/kg-day
  Liver/Body Weight: 3.22%
  Liver/Brain Weight: 499%
  MPV: 7.95 ± 0.58 fL
  PT: 14.44 s
  RBC: 7.067±0.364 M/µL
  Total BW change: 106.79 g
  Total Food Consumed: 1525 g
male
  BMD10, absolute kidney weight increase: 0.17 mg/kg-day
  BMD10, absolute liver weight increase: 0.09 mg/kg-day
  BMD10, relative liver weight increase: 0.15 mg/kg-day
  BMDL, absolute kidney weight increase: 0.06 mg/kg-day
  BMDL, absolute liver weight increase: 0.04 mg/kg-day
  BMDL, relative liver weight increase: 0.13 mg/kg-day
  LOEL, absolute kidney weight increase: 0.3 mg/kg-day
  LOEL, absolute liver weight increase: 0.3 mg/kg-day
  LOEL, relative kidney weight increase: 1.0 mg/kg-day
  LOEL, relative liver weight increase: 0.3 mg/kg-day
  NOEL, absolute kidney weight increase: 0.1 mg/kg-day
  NOEL, absolute liver weight increase: 0.1 mg/kg-day
  NOEL, relative kidney weight increase: 0.3 mg/kg-day
  NOEL, relative liver weight increase: 0.1 mg/kg-day
male, 0.1 mg/kg-day
  % BW Gain: 110.97%
  % Diff, % BW Gain: 9.90%
  % Diff, Total BW change: 10.47%
  % Diff, Total Food Consumed: 3.57%
  A/G: 0.90±0.08 ratio
  ABNEUT: 4.163±1.653 K/µL
  ABRETi: 193.23±33.44 10^9/L
  ABSEOS: 0.112±0.047 K/µL
  ALB: 3.60 ± 0.21 g/dL
  ALPi: 138.7±40.9 U/L
  APTT: 23.16 s
  BUN: 16.2 ± 1.6 mg/dL
  CHOL: 73.4 ± 15.5 mg/dL
  GLOB: 4.03 ± 0.29 g/dL
  GLUC: 107.6 ± 8.6 mg/dL
  HCT: 46.10±4.64%
  HGB: 14.36 ± 1.40 g/dL
  Kidney Weight: 3.14 g
  Kidney/Body Weight: 0.51%
  Kidney/Brain Weight: 141%
  Liver Weight: 14.99 g
  Liver/Body Weight: 2.41%
  Liver/Brain Weight: 673%
  MPV: 7.82 ± 0.50 fL
  PT: 15.98 s
  RBC: 8.281±0.895 M/µL
  Total BW change: 333.40 g
  Total Food Consumed: 2298 g
male, 0.3 mg/kg-day
  % BW Gain: 113.17%
  % Diff, % BW Gain: 12.08%
  % Diff, Total BW change: 12.46%
  % Diff, Total Food Consumed: 9.40%
  A/G: 0.98±0.10 ratio
  ABNEUT: 3.679±1.341 K/µL
  ABRETi: 224.66±50.41 10^9/L
  ABSEOS: 0.108±0.037 K/µL
  ALB: 3.74 ± 0.23 g/dL
  ALPi: 174.2±32.7 U/L
  APTT: 15.99 s
  BUN: 18.3 ± 1.6 mg/dL
  CHOL: 78.7 ± 16.8 mg/dL
  GLOB: 3.85 ± 0.30 g/dL
  GLUC: 112.1 ± 9.6 mg/dL
  HCT: 47.33±1.28%
  HGB: 14.69 ± 0.40 g/dL
  Kidney Weight: 3.46 g
  Kidney/Body Weight: 0.56%
  Kidney/Brain Weight: 157%
  Liver Weight: 17.52 g
  Liver/Body Weight: 2.82%
  Liver/Brain Weight: 793%
  MPV: 7.63 ± 0.44 fL
  PT: 15.10 s
  RBC: 8.282±0.259 M/µL
  Total BW change: 339.42 g
  Total Food Consumed: 2427 g
male, 1.0 mg/kg-day
  % BW Gain: 108.93%
  % Diff, % BW Gain: 7.88%
  % Diff, Total BW change: 4.36%
  % Diff, Total Food Consumed: 6.25%
  A/G: 1.11±0.09 ratio
  ABNEUT: 2.627±0.787 K/µL
  ABRETi: 186.29±26.35 10^9/L
  ABSEOS: 0.097±0.026 K/µL
  ALB: 3.99 ± 0.25 g/dL
  ALPi: 327.4±48.9 U/L
  APTT: 12.70 s
  BUN: 20.4 ± 2.6 mg/dL
  CHOL: 62.6 ± 7.6 mg/dL
  GLOB: 3.59 ± 0.18 g/dL
  GLUC: 126.1 ± 10.3 mg/dL
  HCT: 45.42±2.38%
  HGB: 13.91 ± 0.69 g/dL
  Kidney Weight: 3.57 g
  Kidney/Body Weight: 0.61%
  Kidney/Brain Weight: 164%
  Liver Weight: 20.59 g
  Liver/Body Weight: 3.48%
  Liver/Brain Weight: 949%
  MPV: 7.90 ± 0.61 fL
  PT: 15.56 s
  RBC: 8.519±0.467 M/µL
  Total BW change: 314.97 g
  Total Food Consumed: 2357 g
male, 3.0 mg/kg-day
  % BW Gain: 89.59%
  % Diff, % BW Gain: -11.27%
  % Diff, Total BW change: -11.64%
  % Diff, Total Food Consumed: 7.33%
  A/G: 1.18±0.10 ratio
  ABNEUT: 2.351±0.464 K/µL
  ABRETi: 190.46±33.42 10^9/L
  ABSEOS: 0.095±0.043 K/µL
  ALB: 4.10 ± 0.25 g/dL
  ALPi: 286.4±30.8 U/L
  APTT: 12.24 s
  BUN: 22.6 ± 3.6 mg/dL
  CHOL: 68.5 ± 12.2 mg/dL
  GLOB: 3.48 ± 0.13 g/dL
  GLUC: 126.8 ± 13.8 mg/dL
  HCT: 46.18±2.11%
  HGB: 14.09 ± 0.70 g/dL
  Kidney Weight: 3.57 g
  Kidney/Body Weight: 0.65%
  Kidney/Brain Weight: 164%
  Liver Weight: 20.96 g
  Liver/Body Weight: 3.81%
  Liver/Brain Weight: 966%
  MPV: 7.79 ± 0.43 fL
  PT: 14.98 s
  RBC: 8.351±0.354 M/µL
  Total BW change: 266.69 g
  Total Food Consumed: 2381 g
male, 10 mg/kg-day
  % BW Gain: 80.97%
  % Diff, % BW Gain: -19.80%
  % Diff, Total BW change: -20.93%
  % Diff, Total Food Consumed: 2.34%
  A/G: 1.15±0.10 ratio
  ABNEUT: 2.413±0.948 K/µL
  ABRETi: 172.74±32.27 10^9/L
  ABSEOS: 0.101±0.025 K/µL
  ALB: 3.90 ± 0.20 g/dL
  ALPi: 315.8±44.0 U/L
  APTT: 12.57 s
  BUN: 22.4 ± 2.6 mg/dL
  CHOL: 68.0 ± 15.7 mg/dL
  GLOB: 3.39 ± 0.19 g/dL
  GLUC: 122.6 ± 10.8 mg/dL
  HCT: 44.76±2.84%
  HGB: 13.84 ± 0.78 g/dL
  Kidney Weight: 3.53 g
  Kidney/Body Weight: 0.69%
  Kidney/Brain Weight: 170%
  Liver Weight: 21.12 g
  Liver/Body Weight: 4.16%
  Liver/Brain Weight: 1016%
  MPV: 7.66 ± 0.42 fL
  PT: 15.81 s
  RBC: 8.118±0.277 M/µL
  Total BW change: 238.64 g
  Total Food Consumed: 2270 g
